Reference: PubChem BioAssay AID250 (DTP/NCI, 2004)
Values joined by “and” are separate entries in the source; they are usually repeats but may differ in a detail not shown here. Equal entries are not always repeated. Inconclusive results and toxic doses are left out.

Test system: BDF1 mice, L1210 leukemia sc, survival T/C
Test: NCI In Vivo Anticancer Drug Screen. Data for tumor model L1210 Leukemia (subcutaneous) in B6D2F1 (BDF1) mice
Settings: higher = longer survival
Summary of the method: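 Read-out: T/C ratio, i.e. survival or tumor size in treated mice over that in vehicle-treated controls, from mice bearing transplantable tumors.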

[1] = endpoint: median survival time, dose: 108.0 mg/kg/injection, schedule: Q01DX Z (sc), vehicle: methylcellulose (MC)
[2] = endpoint: median survival time, dose: 180.0 mg/kg/injection, schedule: Q01DX Z (sc), vehicle: methylcellulose (MC)
[3] = endpoint: median survival time, dose: 300.0 mg/kg/injection, schedule: Q01DX Z (sc), vehicle: methylcellulose (MC)
[4] = endpoint: median survival time, dose: 500.0 mg/kg/injection, schedule: Q01DX Z (sc), vehicle: methylcellulose (MC)
[5] = endpoint: median survival time, dose: 8.4 mg/kg/injection, schedule: Q01DX Z (sc), vehicle: water
[6] = endpoint: median survival time, dose: 1.8 mg/kg/injection, schedule: Q01DX Z (sc), vehicle: methylcellulose (MC)
[7] = endpoint: median survival time, dose: 3.0 mg/kg/injection, schedule: Q01DX Z (sc), vehicle: methylcellulose (MC)

## CC1CCC(NC(=O)N(CCCl)N=O)CC1 (stereo not given)
endpoint: median survival time, dose: 5.0 mg/kg/injection, schedule: Q03HX008 (sc), vehicle: saline
  T/C: 322 % of control and 333 % of control
endpoint: median survival time, dose: 6.25 mg/kg/injection, schedule: Q04DX008 (sc), vehicle: saline
  T/C: 681 % of control and 690 % of control
endpoint: median survival time, dose: 12.5 mg/kg/injection, schedule: Q01DX001 (sc), vehicle: saline
  T/C: 120 % of control
endpoint: median survival time, dose: 12.5 mg/kg/injection, schedule: Q04DX008 (sc), vehicle: saline
  T/C: 370 % of control and 403 % of control
endpoint: median survival time, dose: 25.0 mg/kg/injection, schedule: Q04DX008 (sc), vehicle: saline
  T/C: 119 % of control and 120 % of control
endpoint: median survival time, dose: 50.0 mg/kg/injection, schedule: Q04DX001 (sc), vehicle: saline
  T/C: 215 % of control and 257 % of control
endpoint: median survival time, dose: 50.0 mg/kg/injection, schedule: Q04DX008 (sc), vehicle: saline
  T/C: 104 % of control and 105 % of control
endpoint: median survival time, dose: 100.0 mg/kg/injection, schedule: Q04DX001 (sc), vehicle: saline
  T/C: 230 % of control
endpoint: median survival time, dose: 200.0 mg/kg/injection, schedule: Q04DX001 (sc), vehicle: saline
  T/C: 120 % of control and 121 % of control
endpoint: median survival time, dose: 400.0 mg/kg/injection, schedule: Q04DX001 (sc), vehicle: saline
  T/C: 150 % of control and 151 % of control

## c1ccc(CNc2ncnc3[nH]ncc23)cc1
endpoint: median survival time, dose: 23.3 mg/kg/injection, schedule: Q01DX Z (sc), vehicle: methylcellulose (MC)
  T/C: 115 % of control
endpoint: median survival time, dose: 64.8 mg/kg/injection, schedule: Q01DX Z (sc), vehicle: methylcellulose (MC)
  T/C: 120 % of control
[1]
  T/C: 110 % of control
[2]
  T/C: 110 % of control
[3]
  T/C: 100 % of control
[4]
  T/C: 100 % of control

## CCCCC(=O)N(c1ccc(Nc2c3ccccc3nc3cc([N+](=O)[O-])ccc23)cc1)S(C)(=O)=O
endpoint: mean survival time, dose: 3.18 mg/kg/injection, schedule: Q01DX009 (sc), vehicle: saline
  T/C: 107 % of control
endpoint: mean survival time, dose: 6.25 mg/kg/injection, schedule: Q01DX009 (sc), vehicle: saline
  T/C: 112 % of control
endpoint: mean survival time, dose: 25.0 mg/kg/injection, schedule: Q01DX009 (sc), vehicle: saline
  T/C: 168 % of control

## O=C(Nc1ccc(C2=NCCN2)cc1)c1cccc(C(=O)Nc2ccc(C3=NCCN3)cc2)c1
[5]
  T/C: 110 % of control
endpoint: median survival time, dose: 14.0 mg/kg/injection, schedule: Q01DX Z (sc), vehicle: water
  T/C: 230 % of control
endpoint: median survival time, dose: 23.0 mg/kg/injection, schedule: Q01DX Z (sc), vehicle: water
  T/C: 235 % of control
endpoint: median survival time, dose: 39.0 mg/kg/injection, schedule: Q01DX Z (sc), vehicle: water
  T/C: 270 % of control
endpoint: median survival time, dose: 65.0 mg/kg/injection, schedule: Q01DX Z (sc), vehicle: water
  T/C: 265 % of control
endpoint: median survival time, dose: 108.0 mg/kg/injection, schedule: Q01DX Z (sc), vehicle: water
  T/C: 270 % of control

## COC12C(COC(N)=O)C3=C(C(=O)C(C)=C(N)C3=O)N1CC1C2N1C (stereo not given)
endpoint: median survival time, dose: 1.8 mg/kg/injection, schedule: Q01DX Z (sc), vehicle: saline
  T/C: 100 % of control
endpoint: median survival time, dose: 2.0 mg/kg/injection, schedule: Q01DX009 (ip), vehicle: saline
  T/C: 101 % of control
endpoint: median survival time, dose: 2.0 mg/kg/injection, schedule: Q01DX009 (sc), vehicle: saline
  T/C: 103 % of control and 106 % of control
endpoint: median survival time, dose: 3.0 mg/kg/injection, schedule: Q01DX Z (sc), vehicle: saline
  T/C: 100 % of control
endpoint: median survival time, dose: 4.0 mg/kg/injection, schedule: Q01DX009 (ip), vehicle: saline
  T/C: 106 % of control
endpoint: median survival time, dose: 4.0 mg/kg/injection, schedule: Q01DX009 (sc), vehicle: saline
  T/C: 104 % of control and 105 % of control
endpoint: median survival time, dose: 5.0 mg/kg/injection, schedule: Q01DX Z (sc), vehicle: saline
  T/C: 100 % of control
endpoint: median survival time, dose: 8.0 mg/kg/injection, schedule: Q01DX009 (ip), vehicle: saline
  T/C: 116 % of control
endpoint: median survival time, dose: 8.0 mg/kg/injection, schedule: Q01DX009 (sc), vehicle: saline
  T/C: 107 % of control and 112 % of control
endpoint: median survival time, dose: 8.4 mg/kg/injection, schedule: Q01DX Z (sc), vehicle: saline
  T/C: 100 % of control
endpoint: median survival time, dose: 16.0 mg/kg/injection, schedule: Q01DX009 (sc), vehicle: saline
  T/C: 116 % of control
endpoint: median survival time, dose: 32.0 mg/kg/injection, schedule: Q01DX009 (sc), vehicle: saline
  T/C: 92 % of control and 117 % of control

## CN=C(NC)c1ccc(NC(=O)c2ccc(C(=O)Nc3ccc(C(=NC)NC)cc3)c(Cl)c2)cc1
endpoint: median survival time, dose: 39.0 mg/kg/injection, schedule: Q01DX Z (sc), vehicle: methylcellulose (MC)
  T/C: 100 % of control
endpoint: median survival time, dose: 65.0 mg/kg/injection, schedule: Q01DX Z (sc), vehicle: methylcellulose (MC)
  T/C: 100 % of control
[1]
  T/C: 100 % of control
[2]
  T/C: 105 % of control
[3]
  T/C: 100 % of control

## CCC(=O)NC1=C(N2CC2)C(=O)C(NC(=O)CC)=C(N2CC2)C1=O
endpoint: median survival time, dose: 1.08 mg/kg/injection, schedule: Q01DX Z (sc), vehicle: methylcellulose (MC)
  T/C: 110 % of control
[6]
  T/C: 110 % of control

## COC(=N)N
[6]
  T/C: 100 % of control
[7]
  T/C: 100 % of control

## S=c1nc[nH]c2c1ncn2C1CCCO1 (stereo not given)
[1]
  T/C: 120 % of control
[2]
  T/C: 120 % of control
[3]
  T/C: 100 % of control

## CN(Cc1cnc2nc(N)nc(N)c2n1)c1c(Cl)cc(C(=O)NC(CCC(=O)O)C(=O)O)cc1Cl (stereo not given)
endpoint: median survival time, dose: 14.0 mg/kg/injection, schedule: Q01DX Z (sc), vehicle: sodium bicarbonate
  T/C: 245 % of control
endpoint: median survival time, dose: 23.0 mg/kg/injection, schedule: Q01DX Z (sc), vehicle: sodium bicarbonate
  T/C: 259 % of control
endpoint: median survival time, dose: 39.0 mg/kg/injection, schedule: Q01DX Z (sc), vehicle: sodium bicarbonate
  T/C: 427 % of control
endpoint: median survival time, dose: 100.0 mg/kg/injection, schedule: Q01DX Z (sc), vehicle: other
  T/C: 154 % of control

## CCCCCCCSc1ncnc2nc[nH]c12
[1]
  T/C: 111 % of control
[2]
  T/C: 111 % of control
[3]
  T/C: 100 % of control
[4]
  T/C: 100 % of control
endpoint: median survival time, dose: 833.0 mg/kg/injection, schedule: Q01DX Z (sc), vehicle: methylcellulose (MC)
  T/C: 100 % of control
endpoint: median survival time, dose: 1388.0 mg/kg/injection, schedule: Q01DX Z (sc), vehicle: methylcellulose (MC)
  T/C: 100 % of control

## Cn1cnc([N+](=O)[O-])c1Sc1nc(N)nc2nc[nH]c12
endpoint: median survival time, dose: 1.3 mg/kg/injection, schedule: Q01DX Z (sc), vehicle: methylcellulose (MC)
  T/C: 110 % of control
endpoint: median survival time, dose: 2.16 mg/kg/injection, schedule: Q01DX Z (sc), vehicle: methylcellulose (MC)
  T/C: 90 % of control and 110 % of control
[7]
  T/C: 109 % of control
endpoint: median survival time, dose: 3.6 mg/kg/injection, schedule: Q01DX Z (oral), vehicle: methylcellulose (MC)
  T/C: 100 % of control
endpoint: median survival time, dose: 3.6 mg/kg/injection, schedule: Q01DX Z (sc), vehicle: methylcellulose (MC)
  T/C: 100 % of control
endpoint: median survival time, dose: 5.0 mg/kg/injection, schedule: Q01DX Z (sc), vehicle: methylcellulose (MC)
  T/C: 118 % of control
endpoint: median survival time, dose: 6.0 mg/kg/injection, schedule: Q01DX Z (oral), vehicle: methylcellulose (MC)
  T/C: 109 % of control
endpoint: median survival time, dose: 8.4 mg/kg/injection, schedule: Q01DX Z (oral), vehicle: methylcellulose (MC)
  T/C: 109 % of control
endpoint: median survival time, dose: 10.0 mg/kg/injection, schedule: Q01DX Z (oral), vehicle: methylcellulose (MC)
  T/C: 100 % of control
endpoint: median survival time, dose: 14.0 mg/kg/injection, schedule: Q01DX Z (oral), vehicle: methylcellulose (MC)
  T/C: 122 % of control
endpoint: median survival time, dose: 17.0 mg/kg/injection, schedule: Q01DX Z (oral), vehicle: methylcellulose (MC)
  T/C: 113 % of control
endpoint: median survival time, dose: 28.0 mg/kg/injection, schedule: Q01DX Z (oral), vehicle: methylcellulose (MC)
  T/C: 113 % of control
endpoint: median survival time, dose: 47.0 mg/kg/injection, schedule: Q01DX Z (oral), vehicle: methylcellulose (MC)
  T/C: 109 % of control
endpoint: median survival time, dose: 47.0 mg/kg/injection, schedule: Q01DX Z (sc), vehicle: methylcellulose (MC)
  T/C: 150 % of control
endpoint: median survival time, dose: 65.0 mg/kg/injection, schedule: Q01DX Z (oral), vehicle: methylcellulose (MC)
  T/C: 154 % of control
endpoint: median survival time, dose: 78.0 mg/kg/injection, schedule: Q01DX Z (oral), vehicle: methylcellulose (MC)
  T/C: 118 % of control
endpoint: median survival time, dose: 108.0 mg/kg/injection, schedule: Q01DX Z (oral), vehicle: methylcellulose (MC)
  T/C: 154 % of control
endpoint: median survival time, dose: 130.0 mg/kg/injection, schedule: Q01DX Z (oral), vehicle: methylcellulose (MC)
  T/C: 113 % of control
endpoint: median survival time, dose: 216.0 mg/kg/injection, schedule: Q01DX Z (oral), vehicle: methylcellulose (MC)
  T/C: 118 % of control

## CCNC(=O)c1cccnc1
[5]
  T/C: 100 % of control
endpoint: median survival time, dose: 77.8 mg/kg/injection, schedule: Q01DX Z (sc), vehicle: water
  T/C: 100 % of control
endpoint: median survival time, dose: 130.0 mg/kg/injection, schedule: Q01DX Z (sc), vehicle: water
  T/C: 95 % of control
endpoint: median survival time, dose: 216.0 mg/kg/injection, schedule: Q01DX Z (sc), vehicle: water
  T/C: 100 % of control
endpoint: median survival time, dose: 360.0 mg/kg/injection, schedule: Q01DX Z (sc), vehicle: water
  T/C: 100 % of control
endpoint: median survival time, dose: 600.0 mg/kg/injection, schedule: Q01DX Z (sc), vehicle: water
  T/C: 100 % of control
endpoint: median survival time, dose: 1000.0 mg/kg/injection, schedule: Q01DX Z (sc), vehicle: water
  T/C: 109 % of control
